For 13 molecules, TGI results are on record in PubChem BioAssay (NCI).

Common to all, as to experiment: NCI tumour cell line growth inhibition, 48 h
The subject of test [1] is A549 NSCLC.
Test [2] has as its system ACHN renal.
The test system of test [3] is CCRF-CEM leukemia.
The subject of test [4] is HOP-62 NSCLC.
Test [5] concerns K-562 leukemia.
The test system of test [6] is MALME-3M melanoma.
For test [7], the system named is RXF 393 renal.
Test [8] relates to SR leukemia.
Test [9] relates to U251 CNS.
Test [10] concerns UACC-257 melanoma.
In test [11] the test system is MCF7 breast.
For test [12], the system named is MDA-MB-435.
For test [13], the system named is PC-3 prostate.

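Exposure lasted 48 hours, with cells grown in 96-well plates and compounds tested at five concentrations. TGI: total growth inhibition.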

Take `CCCCn1c(-c2ccccc2)cs/c1=N\N=C1C=C(C(C)(C)C)C(=O)C(C(C)(C)C)=C1`: the TGI in [1], in test [2], in [3], in test [4], in test [5] and in test [6] was more than 100 µM each time. For the same molecule, the TGI in test [7], in [8], in test [9] and in test [10] was more than 100 µM throughout.

Turning to `N#C/C(=C\c1ccc(O)c(O)c1)c1c(C#N)c(N)nn1-c1ccccc1`, the TGI stood at 39.3 µM in test [1]; 26.9 µM in test [2]; 37.5 µM in test [3]; 40.8 µM in test [4]; 55.9 µM in test [5]; 26.8 µM in [6]. The TGI in [9] was 20.6 µM; in test [10], more than 100 µM.

Regarding `C/C(=C1/N=C(c2cc([N+](=O)[O-])ccc2Cl)N(c2ccc(Br)cc2)C1=O)c1ccc(N(CCC#N)CCC#N)cc1C`, the TGI in [1] is 62.6 µM; in [2] it was more than 100 µM; in test [3] it was 32.7 µM; in [4], more than 100 µM; in test [5], 29.3 µM; in test [6], more than 100 µM. Besides, the TGI in test [7] was more than 100 µM; in [8] it was 42.1 µM; in test [10], more than 100 µM.

As for `NC(Cc1ccc(O)cn1)C(=O)NC(C(=O)O)c1ccccc1` (centres undefined), the TGI in test [1], in test [2], in [3], in test [4], in [5] and in test [6] was more than 100 µM each time. Also, the TGI in test [11], in [12], in test [13], in test [7], in [8] and in test [9] was more than 100 µM each time. This molecule also had a TGI in [10] of more than 100 µM.

Consider `CCOC(=O)Cc1c(C)c2ccc(OC(C)=O)c(OC(C)=O)c2oc1=O`, for which the TGI is more than 100 µM in test [1]; more than 100 µM in test [2]; 28.5 µM in [3]; more than 100 µM in test [4]; 71.9 µM in test [5]; more than 100 µM in [6]. The TGI is 77.1 µM in [11]; more than 100 µM in test [12]; more than 100 µM in test [13]; 64.4 µM in [8]; more than 100 µM in test [9]; 51.1 µM in test [10].

Turning to `COc1c(C)c(C/C=C(\C)CC/C=C(\C)CC/C=C(\C)CCC=C(C)C)c(OC)c(OC)c1OC`, the TGI in [1], in [2], in test [3], in test [4], in [5] and in test [11] was more than 100 µM throughout. Moreover, the TGI in [12], in test [13], in test [7], in test [8], in [9] and in test [10] was more than 100 µM each time.

`CCOC(=O)/C(Br)=C1\OC(=O)c2ccccc2-c2ccccc21`: the TGI is more than 100 µM in test [1]; more than 100 µM in [2]; 67.7 µM in [3]; 54.7 µM in test [4]; more than 100 µM in [5]; more than 100 µM in [6]. The TGI in test [8] is 56.7 µM; in test [9] it was more than 100 µM; in test [10], more than 100 µM.

`Oc1ccc(-c2c3ccccc3c(-c3ccc(O)cc3)c3ccccc23)cc1`: the TGI in [1], in test [2], in test [3], in test [4], in [5] and in test [6] was more than 100 µM each time. In addition, the TGI in [7], in test [8], in test [9] and in test [10] was more than 100 µM in each case.

Turning to `CCN(CC)CC1CCCCN1CC(=O)N1c2cc(Cl)ccc2NC(=O)CC1C` (centres undefined), the TGI in test [1], in test [2], in [3], in [4], in test [5] and in [6] was more than 100 µM each time. Besides, the TGI in [8], in test [9] and in [10] was more than 100 µM each time.

As to `COc1ccc(CN(CCN(C)C)c2ccccn2)cc1` (tested in a mixture with another compound), the TGI in test [2], in [3], in test [4], in test [5], in test [6] and in test [9] was more than 100 µM in each case. This molecule also had a TGI in test [10] of more than 100 µM.

As for `COC1(OC)CC2C(=O)N(Cc3ccccc3)C1C(S(=O)(=O)c1ccccc1)C2C(C)S(=O)(=O)c1ccccc1` (centres undefined), the TGI in [1], in test [2], in [3], in [4], in test [5] and in [6] was more than 100 µM each time. The TGI in test [7], in test [8], in test [9] and in test [10] was more than 100 µM each time.

Regarding `c1ccc2c(c1)nnn2CNc1ccc(N2CCCCC2)cc1`, the TGI in test [1], in [2], in test [3], in test [4], in [5] and in [6] was more than 100 µM throughout. Moreover, the TGI in test [7], in test [8], in [9] and in test [10] was more than 100 µM each time.

With `Cc1ccc2nc(N)[nH]c(=O)c2c1Sc1ccncc1`, the TGI in [1] is more than 100 µM; in test [2], more than 100 µM; in [3], more than 100 µM; in test [4] it was more than 100 µM; in test [5], more than 31.6 µM; in test [6], more than 100 µM. Moreover, the TGI in test [7], in test [8], in test [9] and in test [10] was more than 100 µM each time.
